Measured values as given in US6630127B2, “Method for assessing cortical response to blue light” (The McLean Hospital Corporation, priority 2000, dated 2003).

Experiments:
[1] = tested on: human primary visual cortex (V1); test: fMRI BOLD study with alternating red and blue photic stimulation after oral d-amphetamine or placebo
visual cortex = conditions: photic stimulation paradigm, humans; cited from earlier work

| SMILES | Mean % BOLD signal change (all trials), V1, blue light stimulation ([1]; blue light 470 nm, 0.12 lux, 8 Hz, right and left V1 1x4 ROI, 2.5 mg d-amphetamine sulfate oral, N = 13) [%] | mean BOLD signal change higher in drug than in placebo condition, blue light ([1]; blue light, drug 2.04% versus placebo 1.60%, all trials) [%] | effect of time following drug administration on BOLD signal response to blue light ([1]; linear regression, 5 trials from about 18 min post-drug, Z=-2.471, P=0.013, decreasing BOLD signal over time) | effect of time following drug administration on BOLD signal response to red light ([1]; linear regression, 5 trials, Z=-0.470, P=0.638) | overall BOLD response to red and blue light ([1]; low dose (2.5 mg) d-amphetamine versus placebo) | Mean % BOLD signal change (all trials), V1, red light stimulation ([1]; red light 660 nm, 0.12 lux, 8 Hz, right and left V1 1x4 ROI, 2.5 mg d-amphetamine sulfate oral, N = 13) [%] | mean BOLD signal change higher in drug than in placebo condition, red light ([1]; red light, drug 1.24% versus placebo 0.95%, all trials) [%] | effect on BOLD signal / photic activation in visual cortex (visual cortex) |
| --- | --- | --- | --- | --- | --- | --- | --- | --- |
| C[C@H](N)Cc1ccccc1.C[C@H](N)Cc1ccccc1.O=S(=O)(O)O [d-amphetamine, d-amphetamine sulfate] | 2.04 | 28 | significant effect of time | no significant effect of drug over time | enhanced | 1.24 | 30 |  |
| CCO [ethanol] |  |  |  |  |  |  |  | inhibits photic activation |
